Measurements as given in ChEMBL document CHEMBL1255475, “Mutant prevention concentrations of four carbapenems against gram-negative rods” (2010).
Values after ≈ are worked out from the molar mass of the structure shown.

Legend:
Klebsiella pneumoniae [1] = assay: Ratio of mutant prevention concentration to minimum Inhibitory concentration for beta-lactamase-negative Klebsiella pneumoniae E418; assay type: functional
Escherichia coli [2] = assay: Antibacterial activity against beta-lactamase-negative Escherichia coli E346 incubated up to 7 days by agar dilution method; assay type: functional; conditions: E346, 168 h
Escherichia coli [3] = assay: Ratio of mutant prevention concentration to minimum Inhibitory concentration for beta-lactamase-negative Escherichia coli E345; assay type: functional
Klebsiella pneumoniae [4] = assay: Ratio of mutant prevention concentration to minimum Inhibitory concentration for beta-lactamase-positive ESBL-negative Klebsiella pneumoniae E479; assay type: functional
Escherichia coli [5] = assay: Ratio of mutant prevention concentration to minimum Inhibitory concentration for beta-lactamase-positive ESBL-negative Escherichia coli E412; assay type: functional
Klebsiella pneumoniae [6] = assay: Ratio of mutant prevention concentration to minimum Inhibitory concentration for beta-lactamase-positive ESBL-negative Klebsiella pneumoniae E472; assay type: functional
Escherichia coli [7] = assay: Antibacterial activity against beta-lactamase-negative Escherichia coli E344 incubated up to 7 days by agar dilution method; assay type: functional; conditions: E344, 168 h
Pseudomonas aeruginosa [8] = assay: Antibacterial activity against Pseudomonas aeruginosa P328 incubated up to 7 days by agar dilution method; assay type: functional; conditions: P328, 168 h
Pseudomonas aeruginosa [9] = assay: Ratio of mutant prevention concentration to minimum Inhibitory concentration for Pseudomonas aeruginosa P337; assay type: functional
Acinetobacter baumannii [10] = assay: Antibacterial activity against Acinetobacter baumannii A897 incubated up to 7 days by agar dilution method; assay type: functional; conditions: A897, 168 h
Acinetobacter baumannii [11] = assay: Ratio of mutant prevention concentration to minimum Inhibitory concentration for Acinetobacter baumannii A910; assay type: functional
Acinetobacter baumannii [12] = assay: Ratio of mutant prevention concentration to minimum Inhibitory concentration for Acinetobacter baumannii A867; assay type: functional
Pseudomonas aeruginosa [13] = assay: Ratio of mutant prevention concentration to minimum Inhibitory concentration for Pseudomonas aeruginosa P373; assay type: functional
Pseudomonas aeruginosa [14] = assay: Antibacterial activity against Pseudomonas aeruginosa P340 incubated up to 7 days by agar dilution method; assay type: functional; conditions: P340, 168 h
Acinetobacter baumannii [15] = assay: Ratio of mutant prevention concentration to minimum Inhibitory concentration for Acinetobacter baumannii A885; assay type: functional
Pseudomonas aeruginosa [16] = assay: Antibacterial activity against Pseudomonas aeruginosa P326 incubated up to 7 days by agar dilution method; assay type: functional; conditions: P326, 168 h
Pseudomonas aeruginosa [17] = assay: Antibacterial activity against Pseudomonas aeruginosa P373 incubated up to 7 days by agar dilution method; assay type: functional; conditions: P373, 168 h
Pseudomonas aeruginosa [18] = assay: Ratio of mutant prevention concentration to minimum Inhibitory concentration for Pseudomonas aeruginosa P376; assay type: functional
Acinetobacter baumannii [19] = assay: Antibacterial activity against Acinetobacter baumannii A867 incubated for 24 h by agar dilution method; conditions: A867, 24 h
Acinetobacter baumannii [20] = assay: Ratio of mutant prevention concentration to minimum Inhibitory concentration for Acinetobacter baumannii A890; assay type: functional
Acinetobacter baumannii [21] = assay: Antibacterial activity against Acinetobacter baumannii A911 incubated for 24 h by agar dilution method; conditions: A911, 24 h
Acinetobacter baumannii [22] = assay: Ratio of mutant prevention concentration to minimum Inhibitory concentration for Acinetobacter baumannii A884; assay type: functional
Acinetobacter baumannii [23] = assay: Ratio of mutant prevention concentration to minimum Inhibitory concentration for Acinetobacter baumannii A896; assay type: functional
Pseudomonas aeruginosa [24] = assay: Ratio of mutant prevention concentration to minimum Inhibitory concentration for Pseudomonas aeruginosa P341; assay type: functional
Pseudomonas aeruginosa [25] = assay: Antibacterial activity against Pseudomonas aeruginosa P363 incubated up to 7 days by agar dilution method; assay type: functional; conditions: P363, 168 h
Pseudomonas aeruginosa [26] = assay: Ratio of mutant prevention concentration to minimum Inhibitory concentration for Pseudomonas aeruginosa P326; assay type: functional
Acinetobacter baumannii [27] = assay: Ratio of mutant prevention concentration to minimum Inhibitory concentration for Acinetobacter baumannii A891; assay type: functional
Pseudomonas aeruginosa [28] = assay: Ratio of mutant prevention concentration to minimum Inhibitory concentration for Pseudomonas aeruginosa P363; assay type: functional
Pseudomonas aeruginosa [29] = assay: Antibacterial activity against Pseudomonas aeruginosa P338 incubated up to 7 days by agar dilution method; assay type: functional; conditions: P338, 168 h
Pseudomonas aeruginosa [30] = assay: Antibacterial activity against Pseudomonas aeruginosa P334 incubated up to 7 days by agar dilution method; assay type: functional; conditions: P334, 168 h
Acinetobacter baumannii [31] = assay: Antibacterial activity against Acinetobacter baumannii A929 incubated up to 7 days by agar dilution method; assay type: functional; conditions: A929, 168 h
Acinetobacter baumannii [32] = assay: Ratio of mutant prevention concentration to minimum Inhibitory concentration for Acinetobacter baumannii A849; assay type: functional
Pseudomonas aeruginosa [33] = assay: Antibacterial activity against Pseudomonas aeruginosa P335 incubated up to 7 days by agar dilution method; assay type: functional; conditions: P335, 168 h
Acinetobacter baumannii [34] = assay: Ratio of mutant prevention concentration to minimum Inhibitory concentration for Acinetobacter baumannii A850; assay type: functional
Acinetobacter baumannii [35] = assay: Ratio of mutant prevention concentration to minimum Inhibitory concentration for Acinetobacter baumannii A894; assay type: functional
Acinetobacter baumannii [36] = assay: Ratio of mutant prevention concentration to minimum Inhibitory concentration for Acinetobacter baumannii A892; assay type: functional
Pseudomonas aeruginosa [37] = assay: Antibacterial activity against Pseudomonas aeruginosa P334 after 24 hrs by agar dilution method; conditions: P334, 24 h
Acinetobacter baumannii [38] = assay: Antibacterial activity against Acinetobacter baumannii A894 after 24 hrs by agar dilution method; assay type: functional; conditions: A894, 24 h
Escherichia coli [39] = assay: Antibacterial activity against beta-lactamase-negative Escherichia coli E424 after 24 hrs by agar dilution method; conditions: E424, 24 h
Klebsiella pneumoniae [40] = assay: Antibacterial activity against beta-lactamase-positive ESBL-positive Klebsiella pneumoniae E478 after 24 hrs by agar dilution method; assay type: functional; conditions: E478, 24 h
Klebsiella pneumoniae [41] = assay: Antibacterial activity against beta-lactamase-negative Klebsiella pneumoniae E362 after 24 hrs by agar dilution method; assay type: functional; conditions: E362, 24 h
Pseudomonas aeruginosa [42] = assay: Antibacterial activity against Pseudomonas aeruginosa P353 after 24 hrs by agar dilution method; assay type: functional; conditions: P353, 24 h
Acinetobacter baumannii [43] = assay: Antibacterial activity against Acinetobacter baumannii A884 after 24 hrs by agar dilution method; assay type: functional; conditions: A884, 24 h
Pseudomonas aeruginosa [44] = assay: Antibacterial activity against Pseudomonas aeruginosa P365 after 24 hrs by agar dilution method; conditions: P365, 24 h
Pseudomonas aeruginosa [45] = assay: Antibacterial activity against Pseudomonas aeruginosa P320 after 24 hrs by agar dilution method; conditions: P320, 24 h
Pseudomonas aeruginosa [46] = assay: Antibacterial activity against Pseudomonas aeruginosa P323 after 24 hrs by agar dilution method; conditions: P323, 24 h
Klebsiella pneumoniae [47] = assay: Antibacterial activity against beta-lactamase-positive ESBL-negative Klebsiella pneumoniae E472 after 24 hrs by agar dilution method; assay type: functional; conditions: E472, 24 h
Escherichia coli [48] = assay: Antibacterial activity against beta-lactamase-negative Escherichia coli E408 after 24 hrs by agar dilution method; conditions: E408, 24 h
Pseudomonas aeruginosa [49] = assay: Antibacterial activity against Pseudomonas aeruginosa P338 after 24 hrs by agar dilution method; conditions: P338, 24 h
Pseudomonas aeruginosa [50] = assay: Antibacterial activity against Pseudomonas aeruginosa P332 after 24 hrs by agar dilution method; conditions: P332, 24 h
Pseudomonas aeruginosa [51] = assay: Antibacterial activity against Pseudomonas aeruginosa P352 after 24 hrs by agar dilution method; assay type: functional; conditions: P352, 24 h
Acinetobacter baumannii [52] = assay: Antibacterial activity against Acinetobacter baumannii A897 after 24 hrs by agar dilution method; assay type: functional; conditions: A897, 24 h
Klebsiella pneumoniae [53] = assay: Antibacterial activity against beta-lactamase-negative Klebsiella pneumoniae E418 after 24 hrs by agar dilution method; assay type: functional; conditions: E418, 24 h

Row | SMILES | Ratio (Klebsiella pneumoniae [1]) | MIC (Escherichia coli [2]) [µg/mL] | Ratio (Escherichia coli [3]) | Ratio (Klebsiella pneumoniae [4]) | Ratio (Escherichia coli [5]) | Ratio (Klebsiella pneumoniae [6]) | MIC (Escherichia coli [7]) [µg/mL] | MIC (Pseudomonas aeruginosa [8]) [µg/mL] | MIC (Acinetobacter baumannii [10]) [µg/mL] | MIC (Pseudomonas aeruginosa [14]) [µg/mL] | MIC (Pseudomonas aeruginosa [16]) [µg/mL] | MIC (Pseudomonas aeruginosa [17]) [µg/mL] | MIC (Acinetobacter baumannii [19]) [µg/mL] | MIC (Acinetobacter baumannii [21]) [µg/mL] | MIC (Pseudomonas aeruginosa [25]) [µg/mL] | MIC (Pseudomonas aeruginosa [29]) [µg/mL] | MIC (Pseudomonas aeruginosa [30]) [µg/mL] | MIC (Acinetobacter baumannii [31]) [µg/mL] | MIC (Pseudomonas aeruginosa [33]) [µg/mL] | further results
1 | C[C@@H](O)[C@H]1C(=O)N2C(C(=O)O)=C(S[C@@H]3CN[C@H](C(=O)Nc4cccc(C(=O)O)c4)C3)[C@H](C)[C@H]12 | 2 | 0.008 (≈ 0.0168 µM) | 4 | 8 | 16 | 8 | 0.008 (≈ 0.0168 µM) |  |  |  |  |  |  |  |  |  |  |  |  | 
2 | C[C@@H](O)[C@H]1C(=O)N2C(C(=O)O)=C(S[C@@H]3CN[C@H](CNS(N)(=O)=O)C3)[C@H](C)[C@H]12 [DORIPENEM] | 2 | 0.03 (≈ 0.0713 µM) | 2 | >16 | 4 | >16 | 0.03 (≈ 0.0713 µM) | 2 (≈ 4.76 µM) | 0.5 (≈ 1.19 µM) | 0.125 (≈ 0.297 µM) | 4 (≈ 9.51 µM) | 0.5 (≈ 1.19 µM) | 4 (≈ 9.51 µM) | 4 (≈ 9.51 µM) | 0.25 (≈ 0.595 µM) | 0.25 (≈ 0.595 µM) | 0.125 (≈ 0.297 µM) | 2 (≈ 4.76 µM) | 2 (≈ 4.76 µM) | Ratio (Pseudomonas aeruginosa [9]): 8; Ratio (Acinetobacter baumannii [11]): 2; Ratio (Acinetobacter baumannii [12]): 16; Ratio (Pseudomonas aeruginosa [13]): >8; Ratio (Acinetobacter baumannii [15]): 2; Ratio (Pseudomonas aeruginosa [18]): >16; Ratio (Acinetobacter baumannii [20]): 4; Ratio (Acinetobacter baumannii [22]): 2; Ratio (Acinetobacter baumannii [23]): 2; Ratio (Pseudomonas aeruginosa [24]): 16; Ratio (Pseudomonas aeruginosa [26]): 4; Ratio (Acinetobacter baumannii [27]): 4; Ratio (Pseudomonas aeruginosa [28]): 16; Ratio (Acinetobacter baumannii [32]): 4; Ratio (Acinetobacter baumannii [34]): 2; Ratio (Acinetobacter baumannii [35]): 4; Ratio (Acinetobacter baumannii [36]): 16
3 | C[C@@H](O)[C@H]1C(=O)N2C(C(=O)O)=C(SCCNC=N)C[C@H]12 [IMIPENEM ANHYDROUS] |  |  |  |  |  |  |  |  |  |  |  |  |  |  |  |  |  |  |  | MIC (Pseudomonas aeruginosa [37]): 1 µg/mL (≈ 3.34 µM); MIC (Acinetobacter baumannii [38]): 0.5 µg/mL (≈ 1.67 µM); MIC (Escherichia coli [39]): 0.125 µg/mL (≈ 0.418 µM); MIC (Klebsiella pneumoniae [40]): 4 µg/mL (≈ 13.4 µM); MIC (Klebsiella pneumoniae [41]): 0.5 µg/mL (≈ 1.67 µM); MIC (Pseudomonas aeruginosa [42]): 8 µg/mL (≈ 26.7 µM); MIC (Acinetobacter baumannii [43]): 1 µg/mL (≈ 3.34 µM); MIC (Pseudomonas aeruginosa [44]): 2 µg/mL (≈ 6.68 µM); MIC (Pseudomonas aeruginosa [45]): 2 µg/mL (≈ 6.68 µM); MIC (Pseudomonas aeruginosa [46]): 2 µg/mL (≈ 6.68 µM); MIC (Klebsiella pneumoniae [47]): 8 µg/mL (≈ 26.7 µM); MIC (Escherichia coli [48]): 0.125 µg/mL (≈ 0.418 µM); MIC (Pseudomonas aeruginosa [49]): 2 µg/mL (≈ 6.68 µM); MIC (Pseudomonas aeruginosa [50]): 1 µg/mL (≈ 3.34 µM); MIC (Pseudomonas aeruginosa [51]): 8 µg/mL (≈ 26.7 µM); MIC (Acinetobacter baumannii [52]): 0.5 µg/mL (≈ 1.67 µM); MIC (Klebsiella pneumoniae [53]): 2 µg/mL (≈ 6.68 µM)
4 | C[C@@H](O)[C@H]1C(=O)N2C(C(=O)O)=C(S[C@@H]3CN[C@H](C(=O)N(C)C)C3)[C@H](C)[C@H]12 [MEROPENEM] |  |  |  |  |  |  |  | 2 (≈ 5.22 µM) | 0.5 (≈ 1.3 µM) | 0.25 (≈ 0.652 µM) | 8 (≈ 20.9 µM) | 0.5 (≈ 1.3 µM) | 8 (≈ 20.9 µM) | 4 (≈ 10.4 µM) | 0.5 (≈ 1.3 µM) | 0.25 (≈ 0.652 µM) | 0.25 (≈ 0.652 µM) | 2 (≈ 5.22 µM) | 4 (≈ 10.4 µM) | 
